{
  "source": "paper PMC7484352",
  "about": "(Archives of biochemistry and biophysics, 2020)",
  "target": "T1, bDAD (DAD V1M) (Burkholderia sp. AZ11, UniProt F7J5X4, V1M)",
  "T1 sequence (F7J5X4 1-177)": "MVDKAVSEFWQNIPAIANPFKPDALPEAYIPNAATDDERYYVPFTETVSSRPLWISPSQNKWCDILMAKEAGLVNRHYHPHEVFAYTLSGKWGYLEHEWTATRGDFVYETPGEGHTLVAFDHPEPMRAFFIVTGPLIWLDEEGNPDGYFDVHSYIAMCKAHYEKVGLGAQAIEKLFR",
  "experiment": "UV absorbance at […] nm, DHA consumption",
  "format": "biochemical",
  "data": [
    {"smiles": "O=C(O)c1ccc(O)cc1", "note": "[4HB, 4-hydroxybenzoic acid]", "values": [
      {"measurement": "Ki", "value": "1100 ± 400", "unit": "µM"}
    ]}
  ]
}
